What was measured:
[1] = test system: Normotensive Dutch Belted rabbits; assay: Intraocular pressure (IOP) measurements in rabbits; format: in vivo, rabbit; conditions: for reduction of IOP: 25 μl, normal Dutch Belted rabbits; for ocular hypotensive response (significance): all doses (0.5, 0.1 and 0.01%); for ocular hypotensive response (significance) / contralateral effect on IOP (fellow eye): topical, Dutch Belted rabbits; for contralateral effect on IOP (fellow eye): all doses tested (0.5, 0.1 and 0.01%)
Protocol: Intraocular Pressure (IOP) Measurements in Rabbits
Normotensive Dutch Belted rabbits (2.3 kg) of either sex were maintained on a 12-hour light/dark cycle during these experiments. Intraocular pressure (IOP) was measured using a calibrated pneumatonometer (Alcon Applanation Pneumatonograph), and results expressed in millimeters of mercury (mmHg). Before tonometry, one drop of 0.05% proparacaine was applied to the corneas to minimize any discomfort to the animal. Two base-line (control) readings were taken at (−0.5 and 0 hr.) after which Compounds I, Ia or II were administered topically (unilaterally applied into the conjunctival sac) in a 25 μl volume with the contralateral (fellow) eye receiving an equal volume of vehicle. A masked design was utilized, where the person involved in drug administration and measurement of IOP had no knowledge of the solutions' contents. Subsequently, IOP measurements were taken at 0.5, 1, 2, 3, 4, 5 and 6 hr after topical applications of drug. At the end of each day's measurements, stability of the tonometer was determined using the calibrator/verifier.

[2] = target: T1, high-conductance calcium-activated potassium (Maxi-K) channels (Homo sapiens, UniProt Q12791); assay: Patch clamp recordings of Maxi-K channel currents in excised inside-out membrane patches; format: cell-based; conditions: 1 nM concentration applied to internal side of excised inside-out patch; held at -80 mV, steps to +50 mV
T1 construct: expressed in transfected cells; host or cells: CHO cells (α alone) or HEK293 cells (α and β1)
T1 sequence (Q12791 whole entry): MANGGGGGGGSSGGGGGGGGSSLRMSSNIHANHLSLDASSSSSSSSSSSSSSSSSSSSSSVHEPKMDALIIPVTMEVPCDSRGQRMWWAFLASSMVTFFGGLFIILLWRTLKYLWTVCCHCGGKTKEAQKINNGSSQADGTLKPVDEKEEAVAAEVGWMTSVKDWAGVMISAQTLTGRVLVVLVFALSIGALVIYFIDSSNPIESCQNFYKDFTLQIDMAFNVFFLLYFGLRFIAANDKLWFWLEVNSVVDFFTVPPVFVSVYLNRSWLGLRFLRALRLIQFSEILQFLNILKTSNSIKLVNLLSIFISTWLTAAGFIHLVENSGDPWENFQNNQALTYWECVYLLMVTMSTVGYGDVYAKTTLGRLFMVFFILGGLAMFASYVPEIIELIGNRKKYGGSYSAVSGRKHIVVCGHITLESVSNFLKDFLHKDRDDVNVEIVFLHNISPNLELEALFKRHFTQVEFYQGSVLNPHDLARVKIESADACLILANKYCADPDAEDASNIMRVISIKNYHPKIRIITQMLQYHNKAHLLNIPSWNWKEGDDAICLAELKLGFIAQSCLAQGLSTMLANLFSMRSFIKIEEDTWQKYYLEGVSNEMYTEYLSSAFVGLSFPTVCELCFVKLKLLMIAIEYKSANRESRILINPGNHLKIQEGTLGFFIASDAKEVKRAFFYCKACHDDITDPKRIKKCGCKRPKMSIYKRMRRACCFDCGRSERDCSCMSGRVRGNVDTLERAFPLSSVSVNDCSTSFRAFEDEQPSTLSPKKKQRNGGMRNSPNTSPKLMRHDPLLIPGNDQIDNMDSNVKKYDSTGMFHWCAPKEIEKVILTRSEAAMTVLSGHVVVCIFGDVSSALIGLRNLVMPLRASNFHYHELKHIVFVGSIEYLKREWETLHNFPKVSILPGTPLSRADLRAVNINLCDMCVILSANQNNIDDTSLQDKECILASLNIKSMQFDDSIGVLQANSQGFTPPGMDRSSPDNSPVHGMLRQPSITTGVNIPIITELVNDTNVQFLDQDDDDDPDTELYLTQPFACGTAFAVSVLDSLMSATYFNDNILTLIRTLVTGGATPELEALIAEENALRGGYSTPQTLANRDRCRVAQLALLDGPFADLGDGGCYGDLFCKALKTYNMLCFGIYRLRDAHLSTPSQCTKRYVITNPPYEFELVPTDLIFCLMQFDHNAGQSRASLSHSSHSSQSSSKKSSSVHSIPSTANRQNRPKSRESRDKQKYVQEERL
From the text: Electrophysiological Assays of Compound Effects on High-conductance Calcium-activated Potassium Channels
Patch clamp recordings of currents flowing through high-conductance calcium-activated potassium (Maxi-K) channels were made from membrane patches excised from CHO cells constitutively expressing the α-subunit of the Maxi-K channel or HEK293 cells constitutively expressing both α- and β1-subunits using conventional techniques (Hamill et al., 1981, Pflügers Archiv. 391, 85-100) at room temperature. Glass capillary tubing (Garner #7052) was pulled in two stages to yield micropipettes with tip diameters of approximately 1-2 microns. Pipettes were typically filled with solutions containing (mM): 150 KCl, 10 Hepes (4-(2-hydroxyethyl)-1-piperazine […]), 1 Mg, 0.01 Ca, and adjusted to pH 7.20 with 3.7 mM KOH. After forming a high resistance (>10^9 ohms) seal between the plasma membrane and the pipette, the pipette was withdrawn from the cell, forming an excised inside-out membrane patch. […]
The effects of the compounds of the present invention on Maxi-K channels were examined in excised inside-out membrane patches. […] The fraction of channels blocked in each experiment was calculated from the reduction in peak current caused by application of the specified compound to the internal side of the membrane patch. […]

[3] = target: T2, Maxi-K channel (alpha and beta1 subunits) (Homo sapiens, UniProt Q12791); assay: FRET (VIPR) membrane potential assay in HEK-293 cells transfected with alpha and beta1 subunits of the maxi-K channel; format: cell-based
T2 construct: expressed in transfected cells
T2 sequence (Q12791 whole entry): as above
T2 sequence (Q16558 whole entry partner): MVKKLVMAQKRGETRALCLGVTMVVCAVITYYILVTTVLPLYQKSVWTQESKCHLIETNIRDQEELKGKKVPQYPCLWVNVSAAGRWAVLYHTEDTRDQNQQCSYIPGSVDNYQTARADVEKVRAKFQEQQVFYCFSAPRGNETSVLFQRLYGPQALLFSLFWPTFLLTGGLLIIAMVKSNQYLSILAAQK
Protocol: The identification of inhibitors of the Maxi-K channel is based on the ability of expressed Maxi-K channels to set cellular resting potential after transfection of both alpha and beta1 subunits of the channel in HEK-293 cells and after being incubated with potassium channel blockers that selectively eliminate the endogenous potassium conductances of HEK-293 cells. In the absence of Maxi-K channel inhibitors, the transfected HEK-293 cells display a hyperpolarized membrane potential, negative inside, close to EK (−80 mV) which is a consequence of the activity of Maxi-K channels. Blockade of the Maxi-K channel by incubation with Maxi-K channel blockers will cause cell depolarization. Changes in membrane potential can be determined with voltage-sensitive fluorescence resonance energy transfer (FRET) dye pairs that use two components, a donor coumarin (CC2DMPE) and an acceptor oxanol (DiSBAC2(3)).
Oxanol is a lipophilic anion and distributes across the membrane according to membrane potential. Under normal conditions, when the inside of the cell is negative with respect to the outside, oxanol is accumulated at the outer leaflet of the membrane and excitation of coumarin will cause FRET to occur. Conditions that lead to membrane depolarization will cause the oxanol to redistribute to the inside of the cell, and, as a consequence, a decrease in FRET. […]

[4] = 0.01% unilateral topical application
[5] = 0.1% unilateral topical application
[6] = 0.5% unilateral topical application

## CC(C)C[C@@H](C(=O)O[C@H]1C[C@H]2Cc3c([nH]c4ccccc34)[C@]2(C)[C@@]2(C)CC[C@@]34O[C@@H](C(=O)C=C3[C@]12O)C(C)(C)O4)N(C)C [Compound Ia]
[1]; [4]
  reduction of IOP: 3 mmHg
[1]; [5]
  reduction of IOP: 3.3 mmHg
[1]; [6]
  reduction of IOP: 3.7 mmHg
[1]
  ocular hypotensive response (significance): significant
  contralateral effect on IOP (fellow eye): significant contralateral effect
[2]
  decrease in Maxi-K channel currents: 88%
[3]
  IC50: ≤ 100 nM

## CC(C)[C@@H](C(=O)O[C@H]1C[C@H]2Cc3c([nH]c4ccccc34)[C@]2(C)[C@@]2(C)CC[C@@]34O[C@@H](C(=O)C=C3[C@]12O)C(C)(C)O4)N(C)C [Ib]
[1]; [4]
  reduction of IOP: 3 mmHg
[1]; [5]
  reduction of IOP: 3.3 mmHg
[1]; [6]
  reduction of IOP: 3.7 mmHg
[1]
  ocular hypotensive response (significance): significant
  contralateral effect on IOP (fellow eye): significant contralateral effect
[3]
  IC50: ≤ 100 nM

Reference: US7294646B2, “Maxi-k channel blockers, methods of use and process for making the same” (Merck & Co. Inc., priority 2002, dated 2007)
